Patent US20150368617A1, “METHOD FOR FORMING ENDOTHELIAL CELLS” (Korea Advanced Institute of Science and Technology (KAIST), priority 2012, published 2015)

Key:
Flk1+ MPCs [1] = assay: Differentiation and expansion of ECs from Flk1+ MPCs in feeder cell-free 2D Matrigel system, FACS of CD31+/CD144+ ECs; format: cell-based, mouse; conditions: for EC population: other ROCK inhibitors
Protocol: E14tg2a ESC cell line was a generous gift from Dr. Jun K. Yamashita (Kyoto University), and R1 ESC cell line was purchased from American Type Cell Culture. Mouse iPSC derived from FVB strain was a generous gift from Drs. Hyun-Jai Cho and Hyo-Soo Kim (Seoul National University Hospital). To obtain Flk1+ MPCs, ESCs and iPSCs were cultured on 0.1% gelatin-coated plates at a density of 1-2×10^3 cells/cm^2 in differentiation medium [┌−minimal essential medium (Invitrogen) supplemented with 10% fetal bovine serum (FBS)] without leukemia inhibitory factor (LIF). At day 4.5, the Flk1+ MPCs were purified by AutoMACS™Pro Separator (Miltenyi Biotec) with biotin-conjugated anti-mouse Flk1 antibody (clone AVAS12a1, eBioscience) and streptavidin MicroBeads (Miltenyi Biotec). The Flk1+MPCs were then subsequently plated onto Matrigel (BD Biosciences)-coated plates at a density of 1˜2×10^4 cells/cm^2, and were cultured in differentiation medium supplemented with VEGF-A165 (50 ng/ml, Peprotech). To purify the ECs from the differentiating Flk1+ cells, the cells were first dissociated and resuspended in HBSS/2% FBS, and were serially incubated with anti-mouse ICAM2 antibody (rat monoclonal, clone 3C4, Biolegend) for 10 min and with anti-rat IgG Microbead (Miltenyi Biotec) for 15 min. […] VEGF-Trap was prepared as previously described. Various signaling inhibitors and activators including SB203580, PD98059, KT5720, Go6976, KT5823, LY294002, rapamycin, Y27632, SB431542, Rho-kinase inhibitor (RKI; H-1152, isoquinolinesulfonamide), and Rho-kinase inhibitor II (RKI-II; pyridyl urea) were purchased from Calbiochem and Sigma-Aldrich.
Cells were harvested with 0.25% trypsin-EDTA (Invitrogen) or dissociation buffer (Invitrogen) and resuspended in HBSS/2% FBS at 1×10^6 cells per 100┌ l. The cells were incubated for 20 min with the following antibodies: biotin-conjugated anti-mouse Flk1 (clone AVAS12a1, eBioscience), allophycocyanin (APC)-conjugated anti-mouse CD140a (clone APA5, eBioscience), phycoerythrin(PE)-conjugated anti-mouse CD31 (clone 390, eBioscience), Alexa Fluor® 647-conjugated anti-mouse CD144 (clone BV13, eBioscience), PE-conjugated anti-mouse D114 (clone HMD4-1, Biolegend), PE-conjugated anti-mouse Tie2 (clone TEK4, eBioscience), PE-conjugated anti-mouse Endoglin (clone MJ7/18, Biolegend), anti-mouse ICAM2 (clone 3C4, Biolegend), APC-conjugated anti-mouse CD140b (clone APBS, eBioscience), PE-conjugated anti-mouse LYVE1 (clone ALY7, eBioscience), anti-mouse VEGFR3 (goat polyclonal, R&D systems), anti-mouse EphB4 (clone VEB4-7E4, Hycult biotech), and PE-conjugated anti-mouse Notch1 (clone HMN1-12, Biolegend). After washing in HBSS/2% FBS twice, the cells were incubated with the following secondary antibodies: PE-conjugated streptavidin (eBioscience), PE-conjugated anti-rat IgG2a (eBioscience), and FITC-conjugated anti-goat IgG (Invitrogen). Dead cells were excluded by 7-aminoactinomycin D (7-AAD, Invitrogen).
Flk1+ MPCs derived from mouse ESCs are capable of differentiating into ECs, hematopoietic cells, mural cells (MCs), and cardiomyocytes. To avoid cell contamination from using feeder cells for differentiation of Flk1+ MPCs, we have established a feeder cell-free 2D Matrigel system (FIG. 1A). Flk1+ MPCs were differentiated from E14tg2a ESC cell line, and when the Flk1+ MPCs were purified at day 4.5 and cultured on Matrigel-coated plates in the differentiation medium, colonies of CD144+ ECs surrounded by ┌ SMA+MCs were formed (FIG. 1B). At day 6.5, population of CD144+/CD31+ ECs grown in differentiation medium was ˜4%, whereas the same EC population was increased up to ˜20% when VEGF-A (50 ng/ml) was supplemented (FIG. 1C). For following experiments, we chose to use 50 ng/ml of VEGF-A (hereafter referred to as VEGF-A) based on its maximal effect on differentiation and expansion of ECs from Flk1+ MPCs.

Flk1+ MPCs [2] = assay: Differentiation of MCs from Flk1+ MPCs, FACS of αSMA+ MCs; format: cell-based, mouse; conditions: Y27632 10 μM; ML7 5 μM
Protocol: FIGS. 11A-11D. ROCK suppression promotes the differentiation of ECs through PTEN-Akt signaling and inhibits the differentiation of MCs through MyPT-MLC signaling. (FIG. 11A) Representative FACS analysis of CD31+/CD144+ ECs incubated with 0.1% DMSO or LY294002 (20┌ M; LY) in the presence of PBS (Control) or Y27632 (10┌ M; Y). (FIG. 11B) % of CD31+/CD144+ EC population. Each group, n=3. *p<0.01 versus 0. Each group, n=3. *p<0.01 versus DMSO; ^#p<0.01 versus Y27632. (FIG. 11C) Representative FACS analysis of ┌ SMA+MCs or CD144+ ECs incubated with 0.1% DMSO or ML7 (5 ┌ M) in the presence of PBS (Control) or Y27632 (10┌ M). (FIG. 11D) % of ┌ SMA+MC population. Each group, n=3. *p<0.01 versus 0. Each group, n=3. *p<0.01 versus DMSO. n.s. represents statistically non-significant.
Analysis and sorting for CMs were performed at day 10.5. We harvested differentiated Flk1+ MPCs on OP9 cells with 0.25% trypsin-EDTA or dissociation buffer (Invitrogen). Cardiac troponin-T (cTnT)+ and ┌ smooth muscle actin (SMA)+ cells were analyzed after permeabilization using Cytofix/Cytoperm solution (BD Biosciences) for 15 min. After permeabilization, the cells were incubated for 30 min with anti-mouse cTnT (NeoMarkers) monoclonal antibody. […] Data were analyzed using FlowJo Version 7.5.4 software (TreeStar).

`Cc1cncc2cccc(S(=O)(=O)N3CCCNC[C@@H]3C)c12` [RKI] was tested, and the EC population (Flk1+ MPCs [1]) was “similarly increased”.

`O=C(Nc1ccncc1)Nc1c(Cl)cc(Cl)cc1Cl` [RKI-II] was tested, and the EC population (Flk1+ MPCs [1]) was “similarly increased”.

`O=c1cc(N2CCOCC2)oc2c(-c3ccccc3)cccc12` [LY294002] was tested, and the “ROCK suppression-induced differentiation and expansion of ECs” value (Flk1+ MPCs [1]; LY294002 20 μM with Y27632 under VEGF-A stimulus) was “almost completely suppressed” and the “CD31+/CD144+ EC population” value (Flk1+ MPCs [1]; inhibitor treated with VEGF-A, day 6.5) was “strongly reduced”.

For `O=S(=O)(c1cccc2c(I)cccc12)N1CCCNCC1` [ML7], the “reduction of αSMA+MC population” value (Flk1+ MPCs [2]) was ~31%.

“VEGF-Trap: blocks the action of VEGF-A; prepared as previously described” was tested, and the “ROCK suppression-induced expansion of ECs” value (Flk1+ MPCs [1]; pretreatment of VEGF-Trap (5 μg/ml) during differentiation) was “totally abolished”.
